Measured values as given in ChEMBL document CHEMBL2062415, “Steroids from Commiphora mukul display antiproliferative effect against human prostate cancer PC3 cells via induction of apoptosis” (Bioorg Med Chem Lett, 2012).
The source made the active and inactive calls. No cut-off for these calls is given here.

Legend:
[1] = test system: K562; test: Induction of apoptosis in human K562 cells assessed as late apoptotic cells at 5 uM after 48 hrs by annexinV/propidium iodide staining-based FITC analysis (reference value: 2.55%); type: functional
[2] = test system: K562; test: Cytotoxicity against human K562 cells after 24 hrs by MTT assay; type: functional, cell-based; conditions: K562, 24 h
[3] = test system: K562; test: Induction of apoptosis in human K562 cells assessed as early apoptotic cells at 1 uM after 48 hrs by annexinV/propidium iodide staining-based FITC analysis (reference value: 2.08%); type: functional
[4] = test system: K562; test: Induction of apoptosis in human K562 cells assessed as late apoptotic cells at 1 uM after 48 hrs by annexinV/propidium iodide staining-based FITC analysis (reference value: 2.55%); type: functional
[5] = test system: PC-3; test: Increase in Bax protein level in human PC3 cells after 48 hrs by Western blot analysis; type: functional, cell-based
[6] = test system: PC-3; test: Decrease in Bcl-2 protein level in human PC3 cells at 5 uM after 48 hrs by Western blot analysis; type: functional, cell-based
[7] = test system: PC-3; test: Induction of apoptosis in human PC3 cells assessed as necrotic cells at 5 uM after 48 hrs by annexinV/propidium iodide staining-based FITC analysis relative to control; type: functional
[8] = test system: PC-3; test: Cell cycle arrest in human PC3 cells assessed as accumulation at G0/G1 phase at 5 uM after 48 hrs by propidium iodide staining-based flow cytometric analysis relative to control; type: functional
[9] = test system: DU-145; test: Induction of apoptosis in human DU145 cells assessed as accumulation at G0/G1 phase at 40 uM after 48 hrs by propidium iodide staining-based flow cytometric analysis (reference value: 72.11%); type: functional
[10] = test system: K562; test: Induction of apoptosis in human K562 cells assessed as early apoptotic cells at 10 uM after 48 hrs by annexinV/propidium iodide staining-based FITC analysis (reference value: 2.08%); type: functional
[11] = test system: MCF7; test: Induction of apoptosis in human MCF7 cells assessed as late apoptotic cells at 5 uM after 48 hrs by annexinV/propidium iodide staining-based FITC analysis (reference value: 3.57%); type: functional
[12] = test system: PC-3; test: Cell cycle arrest in human PC3 cells assessed as accumulation at G2/M phase after 48 hrs by propidium iodide staining-based flow cytometric analysis; type: functional
[13] = test system: K562; test: Induction of apoptosis in human K562 cells assessed as necrotic cells at 1 uM after 48 hrs by annexinV/propidium iodide staining-based FITC analysis (reference value: 1.19%); type: functional
[14] = test system: DU-145; test: Induction of apoptosis in human DU145 cells assessed as accumulation at G2/M phase at 40 uM after 48 hrs by propidium iodide staining-based flow cytometric analysis (reference value: 16.14%); type: functional
[15] = test system: DU-145; test: Induction of apoptosis in human DU145 cells assessed as necrotic cells at 40 uM after 48 hrs by annexinV/propidium iodide staining-based FITC analysis (reference value: 0.35%); type: functional
[16] = test system: K562; test: Induction of apoptosis in human K562 cells assessed as accumulation at G2/M phase at 1 uM after 48 hrs by propidium iodide staining-based flow cytometric analysis (reference value: 15.72%); type: functional
[17] = test system: K562; test: Induction of apoptosis in human K562 cells assessed as accumulation at G0/G1 phase at 1 uM after 48 hrs by propidium iodide staining-based flow cytometric analysis (reference value: 38.61%); type: functional
[18] = test system: MCF7; test: Induction of apoptosis in human MCF7 cells assessed as necrotic cells at 10 uM after 48 hrs by annexinV/propidium iodide staining-based FITC analysis (reference value: 8.28%); type: functional
[19] = test system: K562; test: Induction of apoptosis in human K562 cells assessed as accumulation at G2/M phase at 5 uM after 48 hrs by propidium iodide staining-based flow cytometric analysis (reference value: 15.72%); type: functional
[20] = test system: PC-3; test: Induction of apoptosis in human PC3 cells assessed as cleavage of caspase 3 at 5 to 20 uM after 48 hrs by Western blot analysis; type: functional, cell-based
[21] = test system: K562; test: Induction of apoptosis in human K562 cells assessed as accumulation at S phase at 1 uM after 48 hrs by propidium iodide staining-based flow cytometric analysis (reference value: 45.67%); type: functional
[22] = test system: DU-145; test: Cytotoxicity against human DU145 cells after 24 hrs by MTT assay; type: functional, cell-based; conditions: DU-145, 24 h
[23] = test system: PC-3; test: Cell cycle arrest in human PC3 cells assessed as accumulation at G2/M phase at 20 uM after 48 hrs by propidium iodide staining-based flow cytometric analysis relative to control; type: functional
[24] = test system: PC-3; test: Cell cycle arrest in human PC3 cells assessed as accumulation at G0/G1 phase at 10 uM after 48 hrs by propidium iodide staining-based flow cytometric analysis relative to control; type: functional
[25] = test system: MCF7; test: Induction of apoptosis in human MCF7 cells assessed as accumulation at S phase at 20 uM after 48 hrs by propidium iodide staining-based flow cytometric analysis (reference value: 22.99%); type: functional
[26] = test system: MCF7; test: Induction of apoptosis in human MCF7 cells assessed as accumulation at G2/M phase at 10 uM after 48 hrs by propidium iodide staining-based flow cytometric analysis (reference value: 9.55%); type: functional
[27] = test system: MCF7; test: Induction of apoptosis in human MCF7 cells assessed as accumulation at G2/M phase at 5 uM after 48 hrs by propidium iodide staining-based flow cytometric analysis (reference value: 9.55%); type: functional
[28] = test system: MCF7; test: Induction of apoptosis in human MCF7 cells assessed as late apoptotic cells at 20 uM after 48 hrs by annexinV/propidium iodide staining-based FITC analysis (reference value: 3.57%); type: functional
[29] = test system: DU-145; test: Induction of apoptosis in human DU145 cells assessed as early apoptotic cells at 40 uM after 48 hrs by annexinV/propidium iodide staining-based FITC analysis (reference value: 2.34%); type: functional
[30] = test system: DU-145; test: Induction of apoptosis in human DU145 cells assessed as accumulation at G0/G1 phase at 20 uM after 48 hrs by propidium iodide staining-based flow cytometric analysis (reference value: 72.11%); type: functional
[31] = test system: PC-3; test: Cell cycle arrest in human PC3 cells assessed as accumulation at S phase at 5 uM after 48 hrs by propidium iodide staining-based flow cytometric analysis relative to control; type: functional
[32] = test system: K562; test: Induction of apoptosis in human K562 cells assessed as necrotic cells at 5 uM after 48 hrs by annexinV/propidium iodide staining-based FITC analysis (reference value: 1.19%); type: functional
[33] = test system: PC-3; test: Induction of apoptosis in human PC3 cells assessed as early apoptotic cells at 10 uM after 48 hrs by annexinV/propidium iodide staining-based FITC analysis relative to control; type: functional
[34] = test system: PC-3; test: Induction of apoptosis in human PC3 cells assessed as late apoptotic cells at 20 uM after 48 hrs by annexinV/propidium iodide staining-based FITC analysis relative to control; type: functional
[35] = test system: PC-3; test: Induction of apoptosis in human PC3 cells assessed as late apoptotic cells at 10 uM after 48 hrs by annexinV/propidium iodide staining-based FITC analysis relative to control; type: functional
[36] = test system: MCF7; test: Induction of apoptosis in human MCF7 cells assessed as necrotic cells at 20 uM after 48 hrs by annexinV/propidium iodide staining-based FITC analysis (reference value: 8.28%); type: functional
[37] = test system: PC-3; test: Induction of apoptosis in human PC3 cells assessed as necrotic cells at 10 uM after 48 hrs by annexinV/propidium iodide staining-based FITC analysis relative to control; type: functional

SMILES: CC[C@H](/C=C/[C@@H](C)[C@H]1CC[C@H]2[C@H]3[C@H]([C@H](O)C[C@]12C)[C@@]1(C)CC[C@H](O)CC1=C[C@H]3O)C(C)C
- Activity [1]: 1.91%
- IC50 [2]: 5.21 µM
- Activity [3]: 1.99%
- Activity [4]: 1.79%
- Activity [5]: Dose-dependent effect
- inhibition [6]: Active
- Activity [7]: 1.87%
- Activity [8]: 59%
- Activity [9]: 46.47%
- Activity [10]: 6.1%
- Activity [11]: 3.47%
- Activity [12]: Dose-dependent effect
- Activity [13]: 0.5%
- Activity [14]: 35.85%
- Activity [15]: 8.01%
- Activity [16]: 13.08%
- Activity [17]: 41.16%
- Activity [18]: 4.47%
- Activity [19]: 13.71%
- Activity [20]: Active
- Activity [21]: 45.77%
- IC50 [22]: 16.6 µM
- Activity [23]: 29.84%
- Activity [24]: 52.69%
- Activity [25]: 19.37%
- Activity [26]: 10.03%
- Activity [27]: 8.56%
- Activity [28]: 6.76%
- Activity [29]: 3.13%
- Activity [30]: 67.88%
- Activity [31]: 26.9%
- Activity [32]: 1.59%
- Activity [33]: 1.49%
- Activity [34]: 42.21%
- Activity [35]: 37.79%
- Activity [36]: 4.8%
- Activity [37]: 2.09%
